From PubChem BioAssay AID179 (DTP/NCI, 2004) come the findings set out here.

Molecules are shown by their SMILES. pEC50, pIC50: −log10 of the molar value. Active and inactive are the calls of the source.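 The calls were made as follows: active = compounds giving half or more protection of infected cells from virus-caused growth loss, again on retest; inactive = the rest.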 Some results are limits rather than exact numbers.

This assay relates to CEM cells HIV-1 protection, formazan growth assay. As to the kind of experiment: NCI AIDS Antiviral Assay. To be noted: for pIC50: measured here: growth of uninfected CEM cells. In outline: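 Human CEM cells, uninfected and HIV-1-infected, received five drug concentrations, and growth was read by soluble formazan assay. Compounds giving at least 50% protection were retested; reproducible 100% protection defined confirmed active.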

`CC1=Nc2sc3c(c2C2=NCCN12)CCCC3`: the pEC50 (as a rule, the negative decadic logarithm of the EC50, by convention in mol/L) was under 3.70 and the pIC50 (as a rule, the negative decadic logarithm of the IC50, by convention in mol/L) was 4.46.
With `COc1cc(C=Nc2ccc(C(C)C)cc2)cc(OC)c1OC`, the pEC50 is under 4.78 and the pIC50 was under 4.78.
Take `CC(=O)C1=C(C)NC(C)=C(C(C)=O)C1c1cccc([N+](=O)[O-])c1`: the pEC50 was 3.74 and the pIC50 was under 3.70.
In the case of `CN(C)c1ccc(/C=N/Nc2nc3ccccc3c(=O)n2-c2ccccc2)cc1`, the pEC50 is under 4.00 and the pIC50 is under 4.00.
In the case of `OC(CBr)C(O)C(O)C(O)CBr` (configuration not stated), the result was inactive.
Same read-out and setting: as for `O=C(CSSCC(=O)Nc1ccc(Br)cc1)Nc1ccc(Br)cc1`, the entry is “inactive”.
As to `NC(N)=NNC(O)(C(=O)O)C(=O)O`, the pEC50 was under 3.70 and the pIC50 is under 3.70.
